# Where a SMILES comes first, the peptide text is derived from it.
# Legend:
# [1] = tested on: herpes simplex virus type I (HSV-1) strain McIntyre; experiment: Yield inhibition assay of HSV-1 in GMK cells; format: cell-based; conditions: plaque reduction and virus yields
# Method: The yield inhibition assay was performed as follows: HSV-1 was inoculated at a multiplicity of 0.5 pfu per GMK cell in the presence of the respective peptide at concentrations of 250 and 25 μg/ml. Virus adsorption was performed for 60 min. at room temperature. The cells were then rinsed five times with Hanks' Balanced Salt Solution (BSS) and incubated in a 5% CO2 atmosphere at 37° C. with maintenance medium containing either peptides or acyclovir, according to the methods described in "Proceedings of a Symposium on Acyclovir", The American Journal of Medicine, Jul. 20, (1982) which is incorporated herein by reference, or without any additives. Twenty-four hours p.i. the cells were freeze-thawed, scraped into the medium and tested for virus yield by the infectivity assay as outlined in Example 2. The results are shown in Table 7 where the plaque reduction values are the mean of two cultures and the yield of HSV-1 after 24 hours is the mean of two determinations and the values are presented in millions of pfu/ml.
# [2] = tested on: normal T cells; experiment: In vitro proliferative response of normal T cells to mitogens, stimulation index; format: cell-based, human
# Method: The in vitro proliferative response of normal T cells was examined after concurrent exposure of unfractionated, and T cell enriched (CD4^+ or CD8^+ enriched using DYNABEADS M-450 CD4 and DYNABEADS M-450 CD, magnetic beads according to the manufacturer's instructions, DYNAL A. S. Oslo Norway).
# The results are indicated as the stimulation index which is calculated as follows: the ratio between radioactive Thymidine incorporated in cell cultures exposed to mitogen alone or mitogen plus Gly-Pro-Gly divided by the radioactive Thymidine incorporated in identical cell cultures exposed to medium alone.
# [3] = In vivo toxicity: growth of mice given intraperitoneal Gly-Pro-Gly; set-up: Mean weight of mice: unit not given here
# Source text: In an in vivo test of the toxicity of Gly-Pro-Gly, groups of mice were given intraperitoneal injections of the substance starting at an age of 6 days. FIG. 3 also graphically depicts the results. […] The peptides are thus nontoxic even when given in large doses.
# [4] = Humoral anti-TNP antibody response in mice pretreated with Gly-Pro-Gly, ELISA endpoint titer; format: in vivo; conditions: 5 mg/day/animal for 5 days
# Method: The effects of Gly-Pro-Gly on development of humoral specific antibody responses was examined in mice. For this purpose, Gly-Pro-Gly was administered in adult (4 weeks old, sex matched) Swiss albino outbred mice by intraperitoneal injections given daily for 5 consecutive days. The control group was not given Gly-Pro-Gly, whereas the second and third groups were given 0.5 mg and 5 mg Gly-Pro-Gly respectively. […]
# Serum antibody responses to the TNP group were monitored by the ELISA technique performed on serum samples collected 2 weeks after the second injection. […]
# ELISA assays were performed as follows. […] TNP-reactive antibodies were then detected by stepwise addition of enzyme labelled goat antibodies to mouse IgG1, IgG2a, IgG2b, IgG3 or IgM (all obtained from Southern Biotechnology Associates, Birmingham, Ala.) and enzyme substrate. Results are expressed as endpoint titer, the latter being defined as the reciprocal of the highest dilution of serum giving an ELISA absorbance value equal to 3 times that of control wells exposed to buffer alone but not serum.
# [5] = tested on: HTLV-111B/H9 New York; experiment: Infectivity assay HTLV-IIIB/H9 New York: p24 ELISA (absorbance 454 nm of diluted supernatant), syncytia, immunofluorescence; format: cell-based, HIV-1; conditions: for # OF SYNCYTIA/WELL Day 14 / PERCENTAGE OF AG POS CELLS / p24 1/10 / p24 1/100 / p24 1/1,000: Table 6; for HIV infection by p24 synthesis and syncytia formation, in words: Tables 3-6
# Method: Virus at 100 50% tissue culture infectious doses (TCID50) and peptides at concentrations of 250 and 25 μg/ml were added to the cells simultaneously and incubated for 2 hours at 4° C. with frequent stirring. Subsequently, the temperature was increased to 37° C. and the mixtures were subjected to a second incubation for 2 hours. Following the second incubation, the cells were centrifuged at 325 x g and washed once in RPMI medium (Gibco Laboratories, N.Y.). Cells, at a concentration of 5×10^5 /ml, were then added to 24 multidish well plates at a final volume of 1.5 ml of growth medium (RPMI supplemented with 10% fetal calf serum (FCS), antibiotics and polybrene (2 μg/ml)), with the addition of peptides at dilutions of 250 or 25 μg/ml. […] As additional controls, two HIV infected cell cultures (designated pos. controls 1 and 2, Tables 3-5) and two uninfected cell cultures (designated neg. controls 1 and 2) were used.
# Infected cells were continuously monitored for formation of syncytia and the growth medium supernatants were analyzed at days 9-12 p.i. for p24 antigen which is an indicator of HIV replication.
# Briefly, the following protocol was used for detection of the p24 antigen. HIV p24 antigen was determined using a rabbit anti-p24 polyclonal antiserum as capture antibody and a biotinylated rabbit anti-p24 polyclonal antibody was used as detecting antibody in an avidin-horse radish peroxidase (HRP) ELISA. The sensitivity of the assay allowed detection of approximately 50 pg of p24 antigen per ml supernatant. […] Serial dilutions of the supernatants were made so as to detect p24 concentration in the most accurate range (<2.0 absorbance units).
# The number of infected cells were then determined by indirect immunofluorescence using a human HIV positive serum diluted 1/100 and FITC conjugated antihuman IgG (Bio Merieux, France) diluted 1/200.
# In tables 3-6, the p24 content of the supernatants of infected cells was determined by diluting the supernatants of infected cells in serial tenfold dilutions (1/10, 1/100, 1/1000 and 1/10,000) and analyzing in ELISA as described above. Results are indicated by the absorbance values (454nm) of respective dilutions.
# In tables 8 and 9, the p24 content of the supernatants of infected cells was determined by diluting the supernatants in serial tenfold dilutions (1/10, 1/100, 1/1,000) and analyzing by ELISA as described in Example 2. Results are indicated by the absorbance values (454 nm) of respective dilutions.
compound,measurement,setting,value
"Nc1nc2c(ncn2COCCO)c(=O)[nH]1 [Acyclovir, acyclovir]","capacity of HSV-1 to replicate in GMK cells, in words",[1],significantly reduced
NCC(=O)N1CCC[C@H]1C(=O)NCC(N)=O [Gly-Pro-Gly] (H-Gly-Pro-Gly-NH2),direct anti-proliferative properties on T cells,[2]; doses as high as 20 μM,marginal if any
same,effect on normal T cell and B cell functions,"[2]; in vitro human, in vivo murine",no effect
same,Mean weight of mice,"[3]; Feb. 25, 0.001 g GPG i.p.",5.66
same,Mean weight of mice,"[3]; Feb. 25, 0.1 g GPG i.p.",4.98
same,Mean weight of mice,"[3]; Feb. 25, 1 g GPG i.p.",5.62
same,Mean weight of mice,"[3]; Feb. 26, 0.001 g GPG i.p.",6.24
same,Mean weight of mice,"[3]; Feb. 26, 0.1 g GPG i.p.",5.54
same,Mean weight of mice,"[3]; Feb. 26, 1 g GPG i.p.",6.27
same,Mean weight of mice,"[3]; Feb. 27, 0.001 g GPG i.p.",6.76
same,Mean weight of mice,"[3]; Feb. 27, 0.1 g GPG i.p.",6.41
same,Mean weight of mice,"[3]; Feb. 27, 1 g GPG i.p.",7.04
same,Mean weight of mice,"[3]; Feb. 28, 0.001 g GPG i.p.",7.40
same,Mean weight of mice,"[3]; Feb. 28, 0.1 g GPG i.p.",7.11
same,Mean weight of mice,"[3]; Feb. 28, 1 g GPG i.p.",7.80
same,Mean weight of mice,"[3]; March 1, 0.001 g GPG i.p.",7.83
same,Mean weight of mice,"[3]; March 1, 0.1 g GPG i.p.",8.00
same,Mean weight of mice,"[3]; March 1, 1 g GPG i.p.",8.61
same,Mean weight of mice,"[3]; March 4, 0.001 g GPG i.p.",9.22
same,Mean weight of mice,"[3]; March 4, 0.1 g GPG i.p.",9.35
same,Mean weight of mice,"[3]; March 4, 1 g GPG i.p.",10.53
same,Mean weight of mice,"[3]; March 5, 0.001 g GPG i.p.",9.63
same,Mean weight of mice,"[3]; March 5, 0.1 g GPG i.p.",10.04
same,Mean weight of mice,"[3]; March 5, 1 g GPG i.p.",11.22
same,Mean weight of mice,"[3]; March 6, 0.001 g GPG i.p.",9.88
same,Mean weight of mice,"[3]; March 6, 0.1 g GPG i.p.",10.35
same,Mean weight of mice,"[3]; March 6, 1 g GPG i.p.",11.44
same,Mean weight of mice,"[3]; March 7, 0.001 g GPG i.p.",9.95
same,Mean weight of mice,"[3]; March 7, 0.1 g GPG i.p.",11.17
same,Mean weight of mice,"[3]; March 7, 1 g GPG i.p.",12.12
same,Mean weight of mice,"[3]; March 8, 0.001 g GPG i.p.",10.30
same,Mean weight of mice,"[3]; March 8, 0.1 g GPG i.p.",11.38
same,Mean weight of mice,"[3]; March 8, 1 g GPG i.p.",12.69
same,Mean weight of mice,"[3]; March 15, 0.001 g GPG i.p., no injections 3/8-3/15",16.59
same,Mean weight of mice,"[3]; March 15, 0.1 g GPG i.p., no injections 3/8-3/15",17.46
same,Mean weight of mice,"[3]; March 15, 1 g GPG i.p., no injections 3/8-3/15",19.85
same,influence on the growth of mice,[3]; compared with controls,no significant influence
same,humoral immune responsiveness of mice,[4],do not appreciably influence
Gly-Pro-Ala,# OF SYNCYTIA/WELL Day 14,[5]; 25 μg/ml,85
same,PERCENTAGE OF AG POS CELLS,[5]; 25 μg/ml,30-40%
same,p24 1/10,[5]; 25 μg/ml,> 2.0
same,p24 1/100,[5]; 25 μg/ml,0.616
same,"p24 1/1,000",[5]; 25 μg/ml,0.154
same,# OF SYNCYTIA/WELL Day 14,[5]; 250 μg/ml,20
same,PERCENTAGE OF AG POS CELLS,[5]; 250 μg/ml,20-30%
same,p24 1/10,[5]; 250 μg/ml,> 2.0
same,p24 1/100,[5]; 250 μg/ml,0.299
same,"p24 1/1,000",[5]; 250 μg/ml,0.059
same,"HIV infection by p24 synthesis and syncytia formation, in words",[5],no inhibitory effect on HIV replication
Gly-Pro-Gly-Gly (GPGG; printed: Gly-Pro-Gly-Gly),# OF SYNCYTIA/WELL Day 14,[5]; 25 μg/ml,15
same,PERCENTAGE OF AG POS CELLS,[5]; 25 μg/ml,25-30%
same,p24 1/10,[5]; 25 μg/ml,0.933
same,p24 1/100,[5]; 25 μg/ml,0.11
same,"p24 1/1,000",[5]; 25 μg/ml,0.016
same,# OF SYNCYTIA/WELL Day 14,[5]; 250 μg/ml,20
same,PERCENTAGE OF AG POS CELLS,[5]; 250 μg/ml,30%
same,p24 1/10,[5]; 250 μg/ml,0.523
same,p24 1/100,[5]; 250 μg/ml,0.052
same,"p24 1/1,000",[5]; 250 μg/ml,0.007
same,"HIV infection by p24 synthesis and syncytia formation, in words",[5],no inhibitory effect on HIV replication

# Source: patent US5627035A, “Peptides that block human immunodeficiency virus and methods of use thereof” (Syntello Vaccine Development AB, priority 1995, dated 1997)
